Measured values taken from article PMC7801736 (ACS infectious diseases, 2019).
In brackets after ≈: the same amount, converted by molar mass. Like-named read-outs stand apart in the source and are kept apart here.

How the values were obtained:
[1] = tested on: M. tuberculosis strain fgd1::tn; assay: microbe, parasite or virus in culture; format: cell-based; settings: for MIC: Mycobacterium tuberculosis, read-out: MIC (µM) fgd1::tn; for MIC shift, fgd1::tn strain: fgd1::tn vs H37Rv
M. tuberculosis H37Rv [2] = settings: for time of treatment after which intrabacterial metabolite was detectable: H37Rv, 20 µM JSF-2164
[3] = molecular target: purified M. tuberculosis InhA (Mycobacterium tuberculosis, UniProt P9WGR1); assay: biochemical
Sequence of purified M. tuberculosis InhA (P9WGR1 whole entry, looked up): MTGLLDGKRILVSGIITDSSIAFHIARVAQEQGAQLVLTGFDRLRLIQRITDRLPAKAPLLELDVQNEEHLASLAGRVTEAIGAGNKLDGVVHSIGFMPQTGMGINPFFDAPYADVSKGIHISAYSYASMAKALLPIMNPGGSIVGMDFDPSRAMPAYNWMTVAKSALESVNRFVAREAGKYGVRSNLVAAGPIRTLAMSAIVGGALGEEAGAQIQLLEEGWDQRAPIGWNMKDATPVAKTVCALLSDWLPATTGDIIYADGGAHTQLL
M. tuberculosis fgd1::tn [4] = assay: Griess assay for NO· quantification, fgd1::tn; format: cell-based, Mycobacterium tuberculosis; settings: F420H2 cofactor deficiency; 20 or 100 µM
[5] = tested on: M. tuberculosis strain ddn::tn; assay: microbe, parasite or virus in culture; format: cell-based; settings: Mycobacterium tuberculosis, read-out: MIC (µM) ddn::tn
M. tuberculosis H37Rv [6] = assay: Griess assay for NO· quantification, H37Rv; format: cell-based, Mycobacterium tuberculosis; settings: for NO· production (supernatant nitrite concentration), 20 µM compound / NO· production (supernatant nitrite concentration), 100 µM compound: 2 days
in vitro = format: cell-based; settings: African green monkey
M. tuberculosis H37Rv [7] = format: cell-based, Mycobacterium tuberculosis
[8] = tested on: M. tuberculosis fatty acid biosynthesis; format: cell-based, Mycobacterium tuberculosis
[9] = tested on: M. tuberculosis streptomycin-sensitive (ss18b) strain; format: cell-based, Mycobacterium tuberculosis; settings: streptomycin-starved nonreplicating model; 7 days treatment
M. tuberculosis fgd1::tn [10] = settings: 20 µM JSF-2164
InhA = settings: cited from earlier work
[11] = read-out: % InhA inhibition at 50 µM with 1% CMC Tween-20, 50 µM compound, 1% CMC Tween-20

Compound | MIC [1] [µM] | MIC shift, fgd1::tn strain [1] [fold] | inhibition at 50 µM [3, 11] [%] | NO· production in fgd1::tn strain (M. tuberculosis fgd1::tn [4]) | MIC [5] [µM] | NO· production (supernatant nitrite concentration), 20 µM compound (M. tuberculosis H37Rv [6]; 20 µM exposure) [µM] | NO· production (supernatant nitrite concentration), 100 µM compound (M. tuberculosis H37Rv [6]; 100 µM exposure) [µM] | time of treatment after which intrabacterial metabolite was detectable (M. tuberculosis H37Rv [2]) [min] | time of treatment after which intrabacterial metabolite was discernible (M. tuberculosis fgd1::tn [10]) [h] | further results
COc1cccc(Nc2ccc([N+](=O)[O-])c3nonc23)c1 [JSF-2164, N-(3-methoxyphenyl)-7-nitrobenzo[c][1,2,5]oxadiazol-4-amine] | > 200 | > 20 | 44 ± 1 | abolished | 8 (≈ 2.29 µg/mL) | 0.84 | 6.7 | – | – | time at which intrabacterial compound was degraded to a negligible level (M. tuberculosis H37Rv [2]; Mycobacterium tuberculosis): ≥ 4 h; IC50 versus purified InhA relative to MIC against the H37Rv strain ([3]; IC50 larger than MIC): ca. 5 fold; IC50 ([3]; InhA IC50 (µM), without Tween-20, mean ± standard error): 51 µM; IC50 ([3]; InhA IC50 with Tween-20, Tween-20 at 1% of its CMC in enzymatic buffer): 65 ± 16 µM; inhibition at 50 µM ([3]; read-out: InhA Inhibition at 50 µM Cmpd, 50 µM compound, commercial material, mean ± standard error): ≥ 50%; inhibition at 50 µM ([3]; read-out: InhA inhibition at 50 µM compound, synthetic material, 50 µM compound, […]): 44%; CC50 (in vitro): 44 to 87 µM; bactericidal classification (MBC within 4-fold of MIC) (M. tuberculosis H37Rv [7]): not formally bactericidal; reduction in M. tuberculosis colony-forming units/mL (M. tuberculosis H37Rv [7]; 16× MIC, over 7 days, H37Rv): ca. 1 log10; effect on MAMEs and FAMEs (TLC) [8]: did not exhibit a pattern similar to that for INH; in vitro efficacy versus ss18b strain [9]: exhibited in vitro efficacy
COc1cccc(Nc2ccc(N)c3nonc23)c1 [JSF-3616, N4-(3-methoxyphenyl)-benzo[c][1,2,5]oxadiazole-4,7-diamine] | 32 (≈ 8.2 µg/mL) | – | 46 ± 2.9 | – | 32 (≈ 8.2 µg/mL) | – | – | 30 | 4 | –
COc1cccc(Nc2ccc3nonc3c2N)c1 [JSF-3617, N5-(3-methoxyphenyl)benzo[c][1,2,5]oxadiazole-4,5-diamine] | 125 (≈ 32 µg/mL) | – | 77 ± 0.74 | – | 250 (≈ 64.1 µg/mL) | – | – | 30 | 4 | –
CCCCCCc1ccc(Oc2ccccc2C)c(O)c1 [PT70] | – | – | – | – | – | – | – | – | – | Ki (InhA): 0.0078 µM; residence time (InhA): 24 min
NNC(=O)c1ccncc1 [isoniazid, reference compound] | 0.078 (≈ 0.0107 µg/mL) | – | – | – | 0.078 (≈ 0.0107 µg/mL) | – | – | – | – | –
O=[N+]([O-])c1cn2c(n1)OC[C@@H](OCc1ccc(OC(F)(F)F)cc1)C2 [pretomanid] | – | > 500 | – | abolished | – | 9.8 | 17 | – | – | NO· release (ratio of nitrite concentration to compound dose), 20 µM compound (M. tuberculosis H37Rv [6]; 20 µM exposure, initial 2 days): 49%; NO· release (ratio of nitrite concentration to compound dose), 100 µM compound (M. tuberculosis H37Rv [6]; 100 µM exposure, initial 2 days): 17%
